Results reported in paper PMC11200585, “Prospects for Prostate Cancer Chemotherapy: Cytotoxic Evaluation and Mechanistic Insights of Quinolinequinones with ADME/PK Profile” (Biomedicines, 2024).

What was measured:
Format in all cases: cell-based, human
[1] = tested on: SNB-19; experiment: NCI-60 five-dose assay (CNS cancer); settings: 48 h, SRB
[2] = tested on: ACHN; experiment: NCI-60 five-dose assay (renal cancer); settings: 48 h, SRB
[3] = tested on: OVCAR-8; experiment: NCI-60 five-dose assay (ovarian cancer); settings: 48 h, SRB
[4] = tested on: K-562; experiment: NCI-60 five-dose assay (leukemia); settings: SRB
[5] = tested on: HCT-15; experiment: NCI-60 five-dose assay (colon cancer); settings: 48 h, SRB
[6] = tested on: SK-MEL-5; experiment: NCI-60 five-dose assay (melanoma); settings: 48 h, SRB
[7] = tested on: HS 578T; experiment: NCI-60 five-dose assay (breast cancer); settings: 48 h, SRB
[8] = tested on: OVCAR-4; experiment: NCI-60 one-dose screen (ovarian cancer); settings: 10 µM single dose, 48 h
Protocol: (§1) The obtained quinolinequinones were submitted to NCI, Bethesda, USA, and, as per standard protocol of NCI, all compounds were evaluated for their antiproliferative activity at single-dose assay (10 µM concentration in DMSO) on a panel of 60 cancer cell lines derived from leukemia, non-small-cell lung, colon, CNS, melanoma, ovarian, renal, prostate, and breast, as per protocol. Tested compounds were added to the microtiter culture plates followed by incubation for 48 h at 37 °C. Sulforhodamine B (SRB), a protein-binding dye, is used for endpoint determination. The percent of the growth of the treated cells was determined in comparison to the untreated control cells and the results of each tested compound were reported. Data from one-dose experiments pertain to the percentage growth at 10 μM [16, 17, 18].

[9] = tested on: SK-OV-3; experiment: NCI-60 one-dose screen (ovarian cancer); settings: 10 µM single dose, 48 h
Protocol: as §1

[10] = tested on: OVCAR-5; experiment: NCI-60 one-dose screen (ovarian cancer); settings: 10 µM single dose, 48 h
Protocol: as §1

[11] = tested on: NCI/ADR-RES; experiment: NCI-60 one-dose screen (ovarian cancer); settings: 10 µM single dose, 48 h
Protocol: as §1

[12] = tested on: IGROV1; experiment: NCI-60 one-dose screen (ovarian cancer); settings: 10 µM single dose, 48 h
Protocol: as §1

[13] = tested on: OVCAR-8; experiment: NCI-60 one-dose screen (ovarian cancer); settings: 10 µM single dose
Protocol: as §1

[14] = tested on: COLO 205; experiment: NCI-60 five-dose assay (colon cancer); settings: 48 h, SRB
[15] = tested on: SR; experiment: NCI-60 five-dose assay (leukemia); settings: 48 h, SRB
[16] = tested on: M14; experiment: NCI-60 five-dose assay (melanoma); settings: 48 h, SRB
[17] = tested on: SF-295; experiment: NCI-60 five-dose assay (CNS cancer); settings: 48 h, SRB
[18] = tested on: DU-145; experiment: NCI-60 five-dose assay (prostate cancer); settings: 48 h, SRB
[19] = tested on: NCI-H23; experiment: NCI-60 five-dose assay (non-small cell lung cancer); settings: 48 h, SRB
[20] = tested on: CCRF-CEM; experiment: NCI-60 one-dose screen (leukemia); settings: 10 µM single dose
Protocol: as §1

[21] = tested on: K-562; experiment: NCI-60 one-dose screen (leukemia); settings: 10 µM single dose, 48 h
Protocol: as §1

[22] = tested on: RPMI-8226; experiment: NCI-60 one-dose screen (leukemia); settings: 10 µM single dose, 48 h
Protocol: as §1

[23] = tested on: SR; experiment: NCI-60 one-dose screen (leukemia); settings: 10 µM single dose, 48 h
Protocol: as §1

[24] = tested on: SNB-75; experiment: NCI-60 five-dose assay (CNS cancer); settings: 48 h, SRB
[25] = tested on: U251; experiment: NCI-60 one-dose screen (CNS cancer)
Protocol: as §1

[26] = tested on: SNB-75; experiment: NCI-60 one-dose screen (CNS cancer); settings: 10 µM single dose, 48 h
Protocol: as §1

[27] = tested on: SF-295; experiment: NCI-60 one-dose screen (CNS cancer); settings: 10 µM single dose, 48 h
Protocol: as §1

[28] = tested on: SF-539; experiment: NCI-60 one-dose screen (CNS cancer); settings: 10 µM single dose, 48 h
Protocol: as §1

[29] = tested on: SNB-19; experiment: NCI-60 one-dose screen (CNS cancer); settings: 10 µM single dose, 48 h
Protocol: as §1

[30] = tested on: SF-268; experiment: NCI-60 one-dose screen (CNS cancer); settings: 10 µM single dose, 48 h
Protocol: as §1

[31] = tested on: COLO 205; experiment: NCI-60 one-dose screen (colon cancer); settings: 10 µM single dose, 48 h
Protocol: as §1

[32] = tested on: KM12; experiment: NCI-60 one-dose screen (colon cancer); settings: 10 µM single dose, 48 h
Protocol: as §1

[33] = tested on: HCC-2998; experiment: NCI-60 one-dose screen (colon cancer); settings: 10 µM single dose, 48 h
Protocol: as §1

[34] = tested on: HCT-116; experiment: NCI-60 one-dose screen (colon cancer); settings: 10 µM single dose, 48 h
Protocol: as §1

[35] = tested on: SW-620; experiment: NCI-60 one-dose screen (colon cancer); settings: 10 µM single dose, 48 h
Protocol: as §1

[36] = tested on: HT29; experiment: NCI-60 one-dose screen (colon cancer)
Protocol: as §1

[37] = tested on: HCT-15; experiment: NCI-60 one-dose screen (colon cancer); settings: 10 µM single dose, 48 h
Protocol: as §1

[38] = tested on: OVCAR-3; experiment: NCI-60 five-dose assay (ovarian cancer); settings: 48 h, SRB
[39] = tested on: RXF 393; experiment: NCI-60 five-dose assay (renal cancer); settings: 48 h, SRB
[40] = Homo sapiens, read-out: LC50 (the source's name)

CCOc1ccc(NC2=C(Cl)C(=O)c3nc(C)ccc3C2=O)cc1 [AQQ3]
TGI [1]: 3.16 µM | GI50 ([1]; Homo sapiens): 1.68 µM | CC50 [1, 40]: 5.94 µM | TGI [2]: 2.92 µM | GI50 ([2]; Homo sapiens): 1.57 µM | LC50 ([2]; Homo sapiens): 5.45 µM | TGI [3]: 3.01 µM | GI50 ([3]; Homo sapiens): 1.57 µM | CC50 [3, 40]: 5.77 µM | TGI ([4]; 48 h): >100 µM | GI50 ([4]; Homo sapiens, K562, 48 h): 1.17 µM | LC50 ([4]; Homo sapiens, K562, 48 h): > 100 µM | TGI [5]: 2.94 µM | GI50 ([5]; Homo sapiens): 1.3 µM | CC50 [5, 40]: 6.66 µM | TGI [6]: 3.11 µM | GI50 ([6]; Homo sapiens): 1.72 µM | CC50 [6, 40]: 5.62 µM | TGI [7]: 5.82 µM | GI50 ([7]; Homo sapiens): 2.22 µM | CC50 [7, 40]: > 100 µM | GP (growth percentage) [8]: −97.52% | GP (growth percentage) [9]: 79.78% | GP (growth percentage) [10]: 54.83% | GP (growth percentage) [11]: −15.63% | GP (growth percentage) [12]: −82.43% | GP (growth percentage) ([13]; 48 h): 1.03% | inhibition at 10 µM ([13]; Homo sapiens): 99% | TGI [14]: 3.64 µM | GI50 ([14]; Homo sapiens): 1.86 µM | CC50 [14, 40]: 7.12 µM | TGI [15]: >100 µM | GI50 ([15]; Homo sapiens): 1.09 µM | CC50 [15, 40]: > 100 µM | TGI [16]: 3.23 µM | GI50 ([16]; Homo sapiens): 1.68 µM | LC50 ([16]; Homo sapiens): 6.21 µM | TGI [17]: 3.43 µM | GI50 ([17]; Homo sapiens): 1.86 µM | LC50 (50% lethal concentration) ([17]; Homo sapiens): 6.3 µM | TGI [18]: 3.13 µM | GI50 ([18]; Homo sapiens): 1.72 µM | CC50 [18, 40]: 5.68 µM | TGI [19]: 2.85 µM | GI50 ([19]; Homo sapiens): 1.35 µM | CC50 [19, 40]: 6.03 µM | GP (growth percentage) ([20]; 48 h): 0.63% | inhibition at 10 µM ([20]; Homo sapiens): 99.4% | GP (growth percentage) [21]: −4.17% | GP (growth percentage) [22]: −19.35% | GP (growth percentage) [23]: −27.42% | TGI [24]: 2.79 µM | GI50 ([24]; Homo sapiens): 1.46 µM | LC50 (50% lethal concentration) ([24]; Homo sapiens): 5.33 µM | GP (growth percentage) ([25]; 10 µM single dose, 48 h): 15.60% | inhibition at 10 µM ([25]; Homo sapiens, U-251, 10 µM single dose): 84.4% | GP (growth percentage) [26]: 96.54% | GP (growth percentage) [27]: 51.05% | GP (growth percentage) [28]: −58.82% | GP (growth percentage) [29]: 44.68% | GP (growth percentage) [30]: 32.33% | GP (growth percentage) [31]: 98.22% | GP (growth percentage) [32]: 57.40% | GP (growth percentage) [33]: −55.70% | GP (growth percentage) [34]: −83.64% | GP (growth percentage) [35]: −55.33% | GP (growth percentage) ([36]; 10 µM single dose, 48 h): 15.90% | inhibition at 10 µM ([36]; Homo sapiens, HT-29, 10 µM single dose): 84.1% | GP (growth percentage) [37]: −83.19% | TGI [38]: 2.19 µM | GI50 ([38]; Homo sapiens): 0.962 µM | CC50 [38, 40]: 4.87 µM | TGI [39]: 2.96 µM | GI50 ([39]; Homo sapiens): 1.57 µM | LC50 ([39]; Homo sapiens): 5.61 µM
